{"source": "paper PMC6787515", "about": "(Journal of Cellular and Molecular Medicine, 2019)", "assay_type_in_all_cases": "biochemical, Staphylococcus aureus", "key": {"β‐lactamase N1 [1]": {"biological_target": "T1, β‐lactamase N1", "T1 construct": "gene rnjB", "assay": "nitrocefin hydrolysis assay, purified mutant enzyme"}, "β‐lactamase N1 [2]": {"biological_target": "T1, β‐lactamase N1", "assay": "nitrocefin hydrolysis assay, purified recombinant enzyme"}, "β‐lactamase N1 [3]": {"biological_target": "T1, β‐lactamase N1", "assay": "nitrocefin hydrolysis assay, purified mutant enzyme", "remark": "listed apart in the source"}}}
{"smiles": "O=C(O[C@@H]1Cc2c(O)cc(O)cc2O[C@@H]1c1cc(O)c(=O)c2c(O)c(O)cc([C@H]3Oc4cc(O)cc(O)c4C[C@H]3OC(=O)c3cc(O)c(O)c(O)c3)c2c1)c1cc(O)c(O)c(O)c1", "note": "[TFDG, Theaflavin‐3,3´‐digallate]", "values": [{"measurement": "IC50", "setting": "β‐lactamase N1 [1]", "result": 30.13, "unit": "µg/mL"}, {"measurement": "IC50", "setting": "β‐lactamase N1 [2]", "result": 5.82, "unit": "µg/mL"}, {"measurement": "IC50", "setting": "β‐lactamase N1 [3]", "result": 28.91, "unit": "µg/mL"}]}
